Reference: patent US12576059B2, “Methods and compositions for treatment of inflammatory disease” (priority 2021, dated 2026)
Entries after “also recorded” stand apart in the source; their conditions may differ.

Tests used:
healthy mice = details: mouse, in vivo
Method: (§1) Mouse diet was from Research Diets (New Brunswick, NJ) based on fat-free AIN-93G. Fat was added at 11.3% by weight total fat and 0.25% either normal H-AA or D-AA respectively (Table 5).
Male and Female BALB/c and C57BL/6 mice were provided with standard environmental conditions i.e., 22±1° C., 55±5% humidity and 12 h light/dark cycle with free food and water access. At the age of six weeks, animals were split into 8 groups (n=160 total, 20 of each gender) and were continuously fed ad libitum on the diet containing either H-AA or D-AA for 2, 4, 6 or 8 weeks at the daily rate of ca. 5 g of diet per mouse for the duration of the study. The other two groups of animals (n=40, 20 of each gender) received neither PUFA-enriched diets nor LPS served as controls. The body weight and food intake were measured once a week. After completing the appropriate diet course, half of the mice in each group (10 females and 10 males) (i) underwent the procedure of bronchoalveolar lavage (BAL) to accomplish cytological smears, (ii) were subjected to tissue harvesting and collection of colon contents (after humane euthanasia with lethal dose of sodium thiopental, 100 mg/kg intravenously). On the ninth week of this diet course, the other half of the group was administered 1 mg/kg of intranasal (IN) LPS from Escherichia coli O111:B4 (Sigma Aldrich) 24 hours prior to BAL and subsequent euthanasia. 40 D-AA fed animals (20 males, 20 females) were switched to the H-AA diet for washout experiments. […]
Lung, stomach and colon samples were fixed with 4% formaldehyde (freshly prepared from paraformaldehyde), paraffin embedded and cut into 2-4 μm sections. For routine histology, all fixed tissue sections were stained with hematoxylin-eosin (H&E). All slides were evaluated at 10 fields each using a Genetic Pro Bino light microscope (A) and photographed with a digital camera (Delta Optical). Stomach and colon tissue sections were analyzed for signs of active and chronic inflammation, formation of lymph follicles, and hyperplasia of epithelial cells. The severity of lung injury was scored according to lung pathological changes, including interalveolar and perivascular hemorrhages, peri-vascular and peribronchial infiltration, perivascular edema, thickness of alveolar wall, alveolar space value, and emphysematous transformations. Lung tissue samples were additionally stained with commercially available Martius Scarlet Blue (MSB) stain kit (Avantik, USA) for fibrin visualization. The presence of homogeneous fibrin masses of yellow, pink or red color in the lung blood vessels were interpreted as thrombotic masses. […]
Cell free BAL fluid supernatants as well as colon tissue samples were analyzed using commercially available Mouse IL-1B ELISA Kit (R&D systems, Lot P265854, USA) and the Biotek ELx-808 microplate reader (Biotek, USA) according to the instructions recommended by the manufacturer).

[1] = tested on: LPS-induced acute lung injury; experiment: Example 5: response to intranasal LPS in mice fed AA diets (ALI model); type: in vivo, BALB/c and C57BL/6 mice; details: for LPS-induced perivascular edema as measured by alveolar wall thickness: 6 weeks diet, versus H-AA
Method: as §1
Male and Female BALB/c and C57BL/6 mice were provided with standard environmental conditions i.e., 22±1° C., 55±5% humidity and 12 h light/dark cycle with free food and water access. At the age of six weeks, animals were split into 8 groups (n=160 total, 20 of each gender) and were continuously fed ad libitum on the diet containing either H-AA or D-AA for 2, 4, 6 or 8 weeks at the daily rate of ca. 5 g of diet per mouse for the duration of the study. The other two groups of animals (n=40, 20 of each gender) received neither PUFA-enriched diets nor LPS served as controls. The body weight and food intake were measured once a week. After completing the appropriate diet course, half of the mice in each group (10 females and 10 males) (i) underwent the procedure of bronchoalveolar lavage (BAL) to accomplish cytological smears, (ii) were subjected to tissue harvesting and collection of colon contents (after humane euthanasia with lethal dose of sodium thiopental, 100 mg/kg intravenously). On the ninth week of this diet course, the other half of the group was administered 1 mg/kg of intranasal (IN) LPS from Escherichia coli O111:B4 (Sigma Aldrich) 24 hours prior to BAL and subsequent euthanasia. 40 D-AA fed animals (20 males, 20 females) were switched to the H-AA diet for washout experiments.
Cell differential counts were performed on smear slides from resuspended cell pellets of BAL, using commercially available May-Grünwald-Giemsa staining kits. All slides were evaluated in a light microscope (Optec BK5000) at ×200 magnification. These cell counts such as lymphocytes, neutrophils, plasmacytes and macrophages were obtained from 10 fields of each slide.
Lung, stomach and colon samples were fixed with 4% formaldehyde (freshly prepared from paraformaldehyde), paraffin embedded and cut into 2-4 μm sections. For routine histology, all fixed tissue sections were stained with hematoxylin-eosin (H&E). All slides were evaluated at 10 fields each using a Genetic Pro Bino light microscope (A) and photographed with a digital camera (Delta Optical). Stomach and colon tissue sections were analyzed for signs of active and chronic inflammation, formation of lymph follicles, and hyperplasia of epithelial cells. The severity of lung injury was scored according to lung pathological changes, including interalveolar and perivascular hemorrhages, peri-vascular and peribronchial infiltration, perivascular edema, thickness of alveolar wall, alveolar space value, and emphysematous transformations. Lung tissue samples were additionally stained with commercially available Martius Scarlet Blue (MSB) stain kit (Avantik, USA) for fibrin visualization. The presence of homogeneous fibrin masses of yellow, pink or red color in the lung blood vessels were interpreted as thrombotic masses.
We challenged mice fed AA-diets for 6 weeks using LPS treatment. […] Perivascular edema, signs of thrombosis, alveolar wall thickening, irregular distribution of air spaces, and focal areas of alveolar hemorrhage were also observed. We preferred intranasal administration to the more extreme intratracheal route that induces IL-1β which in turn amplifies inflammation making it difficult to distinguish between the early and late consequences of the LPS challenge. Indeed, 24 hours after intranasal administration of LPS at a dose of 1 mg/kg, there was no significant increase in the IL-1B content in BAL fluid or colon homogenates compared to animals not treated with LPS regardless of type or duration of the diets. Intranasal LPS 24 hours post administration increased neutrophils in BAL fluid in all treated groups regardless of gender or form of AA diets.

[2] = 6 or 8 weeks diet, compared to H-AA

With `[2H]C([2H])(/C=C\CCCCC)/C=C\C([2H])([2H])/C=C\C([2H])([2H])/C=C\CCCC(=O)O` [D-AA, 7,7,10,10,13,13-D6-arachidonic acid] the alveolar spaces (healthy mice) was “No relevant changes”, the “average thickness of interalveolar septa, H-AA versus D-AA” value (healthy mice) was “did not significantly differ” and the tolerability (healthy mice) was “well tolerated without apparent adverse reactions”. For the same compound, the “LPS-induced interalveolar septa / wall thickening (in words)” value ([1]; 6-week diet, then single intranasal LPS) was “greater protective action”, the “alveolar spaces and thickness of interalveolar walls” value [1, 2] was “improved” and the endotoxin-induced peribronchial infiltration [1, 2] was “significantly decreased”. For the same compound, the “LPS-induced lung tissue damage, inflammation and emphysema (in words)” value ([1]; dietary consumption prior to LPS exposure) was “substantially mitigated; also recorded: substantially reduced”, the “LPS-induced perivascular edema as measured by alveolar wall thickness” value ([1]; female mice) was “almost negligible” and the “LPS-induced perivascular edema as measured by alveolar wall thickness” value ([1]; male mice) was “significantly milder effect”. The “inflammatory cell types in BAL, H-AA versus D-AA” value ([1]; regardless of gender and LPS treatment) was “No statistically significant differences”.
